US7034070B2, “Arylalkyl aminofunctional silanes for epoxy laminates” (priority 2002, dated 2006)

Test: Water solubility test (aqueous solution clarity and stability)
Format: physicochemical
Conditions: for time the solution stayed clear (before turning hazy): 1.0 gram in 100 ml distilled water with 1% glacial acetic acid, ambient temperatures; for time until the slightly hazy solution turned clear: 1.0 gram sample in 100 ml distilled water acidified with 1% glacial acetic acid, stirring
Protocol: With stirring, 1.0 gram sample from Example 1 was added gradually to 100 ml of distilled water acidified with 1% glacial acetic acid. The solution was slightly hazy at the beginning but turned clear after 45 min. while the commercial product Z-6032 (Dow Coming) under similar conditions turned clear in 20 min.

C=Cc1ccc(CNCCNCCC[Si](OC)(OC)OC)cc1.Cl [Example Z-6032, CH2═CHC6H4CH2NH(CH2)2NH(CH2)3Si(OCH3)3•HCl]
time the solution stayed clear (before turning hazy): less than 1 week
time until the slightly hazy solution turned clear: 20 min

CH3CH2C6H4CH2NH(CH2)2NH(CH2)3Si(OCH3)3•HCl [Example 1]
time the solution stayed clear (before turning hazy): more than two weeks
time until the slightly hazy solution turned clear: 45 min
